Columns and labels:
[1] = biological target: T1, Sheep seminal vesicle cyclooxygenase (Ovis aries, UniProt P05979); assay: Sheep seminal vesicle cyclooxygenase (Procedure I); format: biochemical; conditions: read-out: PROC. I % INHIB CO
T1 construct: Sheep seminal vesicle (SSV) cyclooxygenase (95% pure); purchased Biomol (Plymouth Meeting, Pa.); host or cells: sheep seminal vesicle
T1 sequence (P05979 25-600): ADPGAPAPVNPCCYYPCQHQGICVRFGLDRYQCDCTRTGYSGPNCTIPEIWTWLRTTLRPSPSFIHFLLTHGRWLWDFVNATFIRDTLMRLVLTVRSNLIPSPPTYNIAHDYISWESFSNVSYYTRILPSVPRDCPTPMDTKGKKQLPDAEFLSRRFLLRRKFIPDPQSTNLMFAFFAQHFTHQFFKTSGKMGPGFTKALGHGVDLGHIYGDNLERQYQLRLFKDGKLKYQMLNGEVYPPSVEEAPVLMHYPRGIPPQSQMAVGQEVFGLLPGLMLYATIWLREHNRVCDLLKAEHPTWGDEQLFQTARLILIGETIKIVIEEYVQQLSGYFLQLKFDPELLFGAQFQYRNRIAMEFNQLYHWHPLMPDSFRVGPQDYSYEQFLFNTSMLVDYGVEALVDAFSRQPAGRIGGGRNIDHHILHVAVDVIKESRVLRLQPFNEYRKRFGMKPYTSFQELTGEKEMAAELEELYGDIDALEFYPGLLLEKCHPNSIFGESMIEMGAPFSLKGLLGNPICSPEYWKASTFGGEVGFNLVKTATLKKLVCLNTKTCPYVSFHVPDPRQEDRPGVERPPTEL
Protocol: Sheep seminal vesicle cyclooxygenase Sheep seminal vesicle (SSV) cyclooxygenase (95% pure, prostaglandin endoperoxide synthase, EC 1.14.99.1 specific activity 24 units/mg protein) obtained as a lyophilized powder from Biomol (Plymouth Meeting, Pa.) was reconstituted at a concentration of 59 mg/mL in Hanks' Balanced Salt Solution (HBSS). The enzyme was divided into 200 μL aliquots, snap frozen with liquid N2, and stored at -70° C. unitl immediately prior to use. Measurements of CO activity were carried out in polypropylene tubes containing 495 μL of HBSS to which was added 5 μL of inhibitor or dimethylsulfoxide (DMSO; vehicle control) and 6 μL of SSV CO solution. The tubes were mixed on a vortex shaker, preincubated for 5 min at 37° C. prior to the initiation of the reaction. The reaction was started by the addition of [^14 C]-arachidonic acid (1-^14 C-AA, Amersham, Arlington Heights, Il) in 10 μL of methanol. Tubes were again vortexed and incubated in a water bath for 20 minutes after which the tubes were removed and the reaction stopped by acidification with the addition of 1 mL 2M formic acid. Lipophilic products were extracted with 3 mL chloroform and concentrated to dryness under N2. Each pellet was reconstituted with 40 μL of chloroform and spotted on a Whatman Silicon thin-layer chromatography plate and developed in a chromatography tank containing A-9 solvent (11:5:2:1 V:V:V:V, ethyl acetate:trimethylpentane:acetic acid:double distilled-H2 O). Radioactive cyclooxygenase products (prostaglandin D2, prostaglandin E2, etc.) were measured using a Bioscan System 200 Imaging Scanner. Inhibition of enzyme activity was calculated by comparing the areas under the curve produced in the presence or absence of test compound.

[2] = biological target: T2, RBL-1 cell 5-lipoxygenase (Rattus norvegicus, UniProt P12527); assay: RBL-1 cell 5-lipoxygenase, cell homogenate supernatant (Procedure II); format: biochemical; conditions: RBL-1 homogenate; for inhibition at 3 µM: read-out: PROC. II % INHIBITION 5-LO; for IC50: read-out: PROC. II IC50 5-LO
T2 construct: the supernatant was saved as the source of enzymes; endogenous in cells; host or cells: RBL-1 rat basophilic leukemia cells, homogenate supernatant
T2 sequence (P12527 1-673): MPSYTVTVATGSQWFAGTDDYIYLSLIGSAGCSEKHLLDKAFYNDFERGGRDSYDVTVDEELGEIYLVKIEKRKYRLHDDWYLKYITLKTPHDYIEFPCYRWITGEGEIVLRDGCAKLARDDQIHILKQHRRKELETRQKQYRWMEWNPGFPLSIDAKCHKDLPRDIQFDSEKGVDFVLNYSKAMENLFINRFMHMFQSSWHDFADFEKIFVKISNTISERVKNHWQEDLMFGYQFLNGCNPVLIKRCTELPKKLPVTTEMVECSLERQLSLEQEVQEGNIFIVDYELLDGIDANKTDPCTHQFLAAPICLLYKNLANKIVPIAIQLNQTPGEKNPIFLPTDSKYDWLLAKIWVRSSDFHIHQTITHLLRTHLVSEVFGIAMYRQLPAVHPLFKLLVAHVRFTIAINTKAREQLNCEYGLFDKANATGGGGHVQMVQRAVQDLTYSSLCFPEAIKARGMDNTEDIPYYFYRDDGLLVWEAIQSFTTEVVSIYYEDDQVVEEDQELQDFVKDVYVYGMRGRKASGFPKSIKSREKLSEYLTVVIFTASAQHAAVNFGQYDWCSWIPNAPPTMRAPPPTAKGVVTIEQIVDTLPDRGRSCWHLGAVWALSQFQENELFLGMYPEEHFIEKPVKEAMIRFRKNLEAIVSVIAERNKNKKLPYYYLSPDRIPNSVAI
Protocol: RBL-1 cell 5-lipoxygenase and cyclooxygenase
Rat basophilic leukemia cells (RBL-1; 5×10^7 viable cells/mL) were disrupted by homogenization on ice (four 20 sec bursts) with a Brinkman polytron. Complete cell breakage was verified microscopically. The homogenate was then centrifuged at 10,000×g for 48 minutes at 4° C. The pellet was discarded and the supernatant was saved as the source of enzymes. The supernatant was pre-incubated for five minutes at 37° C. in the presence of 2 mM of CaCl2 and compound or vehicle (1% DMSO). The conversion of AA into 5-LO products was initiated by adding 10 μL (50 μCi) of 1-^14 C-AA to each tube and incubated at 37° C. for 20 minutes. The reaction was stopped by adjusting the pH of each sample to 3 to 3.5 with 2M formic acid. Samples were extracted with three volumes of chloroform to isolate the products of 5-LO formed during the reaction. Fractions were dried under nitrogen, then resuspended in 40 μL of chloroform and spotted onto silica gel HL plates. The plates were developed in A-9 solvent. The dried plates were analyzed using a Bioscan Imaging TLC scanner to determine the percentage of radiolabelled AA converted to 5-HETE in each sample.

| SMILES | inhibition at 3 µM [1] [%] | inhibition at 3 µM [2] [%] | IC50 [2] [nM] |
| --- | --- | --- | --- |
| COc1ccc(-n2nc(CSC(=S)N(O)C(C)C)cc2-c2ccc(Cl)cc2)cc1 [1-B] | 39 | 100 | 570 |
| COc1ccc(-n2nc(CSC(=S)N(C)O)c(Cl)c2-c2ccc(Cl)cc2)cc1 [1-C] | 46 | 91 |  |
| COc1ccc(-n2nc(CSC(=S)N(O)C(C)C)c(Cl)c2-c2ccc(Cl)cc2)cc1 [1-D] | 31 | 70 | 70 |
| COc1ccc(-n2nc(CSC(=S)N(O)C(C)C)c(Br)c2-c2ccc(Cl)cc2)cc1 [1-E] | 0 | 73 | 40 |
| COc1ccc(-n2nc(CSC(=S)N(O)C(C)C)cc2-c2ccc(C)cc2)cc1 [1-G] | 36 | 79 | 20 |
| COc1ccc(-n2nc(CSC(=S)N(C)O)c(Cl)c2-c2ccc(C)cc2)cc1 [1-H] | 39 | 91 |  |

— patent publication US5298521A, “1,5-diphenyl-3-pyrazolylalkyl-N-hydroxydithiocaramates, compositions and use” (Ortho Pharmaceutical Corporation, priority 1993, dated 1994)
